Test results from patent US20250195530A1, “POLQ INHIBITORS” (ASTRAZENECA AB, priority 2022, published 2025).

Key:
DLD-1 cells = test: Inhibition of proliferation, DLD-1 BRCA2 wt control (Cell Titre Glo 3D); type: cell-based; settings: Homo sapiens, DLD-1, 168 h, DLD-1 BRCA2 wt cells, 7 days; read-out: POLQ PD Prolif Lumin DLD1 mean pIC50 (converted)
Procedure, shortened: (§1)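 Proliferation of HR-deficient DLD-1 BRCA2−/− versus isogenic wild-type DLD-1 was measured by ATP luminescence (CellTiter-Glo 3D). Compound exposure lasted 12 or 7 days, respectively, with a fresh dose on day 6. IC50 was the concentration halving maximal signal.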

DLD-1 BRCA2−/− cells = test: Homologous recombination synthetic lethal inhibition of proliferation, DLD-1 BRCA2-/- (Cell Titre Glo 3D); type: cell-based; settings: Homo sapiens, DLD-1, 288 h, DLD-1 BRCA2−/− cells, 12 days; read-out: POLQ PD Prolif Lumin BRCA2 −/− mean pIC50 (converted)
Procedure, shortened: as §1

Structure (SMILES) | IC50 (DLD-1 cells) | IC50 (DLD-1 BRCA2−/− cells)
CC1(Oc2ncnc3c2nc(-c2ccc(OCCN4CC5(C4)CS(=O)(=O)C5)cc2Cl)n3Cc2ccccc2)CC1 [Example H20, 6-(2-(4-(9-benzyl-6-(1-methylcyclopropoxy)-9H-purin-8-yl)-3-chlorophenoxy)ethyl)-2-thia-6-azaspiro[3.3]heptane 2,2-dioxide] | 3.98 µM | 0.1 µM
CC1(Oc2ncnc3c2nc(-c2ccc(OCCN4CCNC(=O)CC4)cc2Cl)n3Cc2ccccc2)CC1 [Example H21, 1-(2-(4-(9-benzyl-6-(1-methylcyclopropoxy)-9H-purin-8-yl)-3-chlorophenoxy)ethyl)-1,4-diazepan-5-one] | > 10 µM | 0.0631 µM
C[C@@H]1C(=O)NCCN1CCOc1ccc(-c2nc3c(OC4(C)CC4)ncnc3n2Cc2ccccc2)c(Cl)c1 [Example H22, (R)-4-(2-(4-(9-benzyl-6-(1-methylcyclopropoxy)-9H-purin-8-yl)-3-chlorophenoxy)ethyl)-3-methylpiperazin-2-one] | > 10 µM | 0.126 µM
CC1(Oc2ncnc3c2nc(-c2ccc(OCCN4CC5(CSC5)C4)cc2Cl)n3Cc2ccccc2)CC1 [Example H23, 6-(2-(4-(9-benzyl-6-(1-methylcyclopropoxy)-9H-purin-8-yl)-3-chlorophenoxy)ethyl)-2-thia-6-azaspiro[3.3]heptane] | 2.51 µM | 0.126 µM
CC1(Oc2ncnc3c2nc(-c2ccc(OCCN4CCNCC4)c(Cl)c2Cl)n3Cc2ccccc2)CC1 [Example J1, 9-benzyl-8-(2,3-dichloro-4-(2-(piperazin-1-yl)ethoxy)phenyl)-6-(1-methylcyclopropoxy)-9H-purine] | 0.501 µM | 0.251 µM
COc1cc(-c2nc3c(OC4(C)CC4)ncnc3n2Cc2ccccc2)c(Cl)cc1OCCN1CCNCC1 [Example J2, 9-benzyl-8-(2-chloro-5-methoxy-4-(2-(piperazin-1-yl)ethoxy)phenyl)-6-(1-methylcyclopropoxy)-9H-purine] | 3.98 µM | 0.794 µM
COc1c(OCCN2CCNCC2)ccc(-c2nc3c(OC4(C)CC4)ncnc3n2Cc2ccccc2)c1Cl [Example J3, 9-benzyl-8-(2-chloro-3-methoxy-4-(2-(piperazin-1-yl)ethoxy)phenyl)-6-(1-methylcyclopropoxy)-9H-purine] | 3.16 µM | 0.501 µM
CC1(Oc2ncnc3c2nc(-c2cc(Cl)c(OCCN4CCNCC4)cc2Cl)n3Cc2ccccc2)CC1 [Example J4, 9-benzyl-8-(2,5-dichloro-4-(2-(piperazin-1-yl)ethoxy)phenyl)-6-(1-methylcyclopropoxy)-9H-purine] | 3.98 µM | 0.0501 µM
Cc1cc(OCCN2CCNCC2)ncc1-c1nc2c(OC3(C)CC3)ncnc2n1Cc1ccccc1Cl [Example J5, 9-(2-chlorobenzyl)-8-(4-methyl-6-(2-(piperazin-1-yl)ethoxy)pyridin-3-yl)-6-(1-methylcyclopropoxy)-9H-purine] | > 10 µM | 1 µM
Cc1cc(OCCN2CCNCC2)ncc1-c1nc2c(OC3(C)CC3)ncnc2n1Cc1cccc(Cl)c1 [Example J6, 9-(3-chlorobenzyl)-8-(4-methyl-6-(2-(piperazin-1-yl)ethoxy)pyridin-3-yl)-6-(1-methylcyclopropoxy)-9H-purine] | > 10 µM | 0.631 µM
CC1(Oc2ncnc3c2nc(-c2ccc(OCCN4CCNCC4)cc2Cl)n3Cc2ccccn2)CCC1 [Example J7, 8-(2-chloro-4-(2-(piperazin-1-yl)ethoxy)phenyl)-6-(1-methylcyclobutoxy)-9-(pyridin-2-ylmethyl)-9H-purine] | 7.94 µM | 0.316 µM
CC1(Oc2ncnc3c2nc(-c2ccc(OCCN4CCNCC4)cc2Cl)n3CCc2cccnc2)CC1 [Example J8, 8-(2-chloro-4-(2-(piperazin-1-yl)ethoxy)phenyl)-6-(1-methylcyclopropoxy)-9-(2-(pyridin-3-yl)ethyl)-9H-purine] | 7.94 µM | > 10 µM
C[C@H](Cn1c(-c2ccc(OCCN3CCNCC3)cc2Cl)nc2c(OC3(C)CC3)ncnc21)c1ccccc1 [Example J9, (S)-8-(2-chloro-4-(2-(piperazin-1-yl)ethoxy)phenyl)-6-(1-methylcyclopropoxy)-9-(2-phenylpropyl)-9H-purine] | 5.01 µM | 2.51 µM
C[C@@H](Cn1c(-c2ccc(OCCN3CCNCC3)cc2Cl)nc2c(OC3(C)CC3)ncnc21)c1ccccc1 [Example J10, (R)-8-(2-chloro-4-(2-(piperazin-1-yl)ethoxy)phenyl)-6-(1-methylcyclopropoxy)-9-(2-phenylpropyl)-9H-purine] | 3.98 µM | 0.631 µM
CC1(Oc2ncnc3c2nc(-c2ccc(OCCN4CCNCC4)cc2Cl)n3CCc2ccccc2)CC1 [Example J12, 8-(2-chloro-4-(2-(piperazin-1-yl)ethoxy)phenyl)-6-(1-methylcyclopropoxy)-9-phenethyl-9H-purine] | > 10 µM | 0.501 µM
CC1(Oc2ncnc3c2nc(-c2ccc(OCCN4CCNCC4)cc2Cl)n3Cc2cccc(Cl)c2)CC1 [Example J13, 8-(2-chloro-4-(2-(piperazin-1-yl)ethoxy)phenyl)-9-(3-chlorobenzyl)-6-(1-methylcyclopropoxy)-9H-purine] | 3.16 µM | 0.0501 µM

Now from value to molecule, other results behind:

IC50 (DLD-1 cells) | Structure (SMILES) | IC50 (DLD-1 BRCA2−/− cells)
> 10 µM | CN1CCN(CCOc2ccc(-c3nc4c(OC5(C)CC5)ncnc4n3Cc3ccncc3)c(Cl)c2)CC1 [Example K1, 8-(2-chloro-4-(2-(4-methylpiperazin-1-yl)ethoxy)phenyl)-6-(1-methylcyclopropoxy)-9-(pyridin-4-ylmethyl)-9H-purine] | 1 µM
6.31 µM | CC1(Oc2ncnc3c2nc(-c2ccc(OCCN4CCNCC4)cc2Cl)n3Cc2cscn2)CC1 [Example K2, 4-((8-(2-chloro-4-(2-(piperazin-1-yl)ethoxy)phenyl)-6-(1-methylcyclopropoxy)-9H-purin-9-yl)methyl)thiazole] | 2 µM
> 10 µM | CC1(Oc2ncnc3c2nc(-c2ccc(OCCN4CCNCC4)cc2Cl)n3Cc2ccc(Cl)cn2)CC1 [Example K3, 8-(2-chloro-4-(2-(piperazin-1-yl)ethoxy)phenyl)-9-((5-chloropyridin-2-yl)methyl)-6-(1-methylcyclopropoxy)-9H-purine] | 1.26 µM
> 10 µM | CC1(Oc2ncnc3c2nc(-c2ccc(OCCN4CCNCC4)cc2Cl)n3Cc2nccs2)CC1 [Example K4, 2-((8-(2-chloro-4-(2-(piperazin-1-yl)ethoxy)phenyl)-6-(1-methylcyclopropoxy)-9H-purin-9-yl)methyl)thiazole] | 3.98 µM
> 10 µM | CC1(Oc2ncnc3c2nc(-c2ccc(OCCN4CCNCC4)cc2Cl)n3Cc2ncccc2Cl)CC1 [Example K5, 8-(2-chloro-4-(2-(piperazin-1-yl)ethoxy)phenyl)-9-((3-chloropyridin-2-yl)methyl)-6-(1-methylcyclopropoxy)-9H-purine] | 2.51 µM
> 10 µM | Cc1nc(Cn2c(-c3ccc(OCCN4CCNCC4)cc3Cl)nc3c(OC4(C)CC4)ncnc32)cs1 [Example K6, 4-((8-(2-chloro-4-(2-(piperazin-1-yl)ethoxy)phenyl)-6-(1-methylcyclopropoxy)-9H-purin-9-yl)methyl)-2-methylthiazole] | 3.98 µM
> 10 µM | Cc1cccc(Cn2c(-c3ccc(OCCN4CCNCC4)cc3Cl)nc3c(OC4(C)CC4)ncnc32)n1 [Example K7, 8-(2-chloro-4-(2-(piperazin-1-yl)ethoxy)phenyl)-6-(1-methylcyclopropoxy)-9-((6-methylpyridin-2-yl)methyl)-9H-purine] | 1.26 µM
7.94 µM | CC1(Oc2ncnc3c2nc(-c2ccc(OCCN4CCNCC4)cc2Cl)n3Cc2cc(C(F)(F)F)ccn2)CC1 [Example K8, 8-(2-chloro-4-(2-(piperazin-1-yl)ethoxy)phenyl)-6-(1-methylcyclopropoxy)-9-((4-(trifluoromethyl)pyridin-2-yl)methyl)-9H-purine] | 0.398 µM
> 10 µM | CC1(Oc2ncnc3c2nc(-c2ccc(OCCN4CCNCC4)cc2Cl)n3Cc2cccc(C#N)n2)CC1 [Example K9, 6-((8-(2-chloro-4-(2-(piperazin-1-yl)ethoxy)phenyl)-6-(1-methylcyclopropoxy)-9H-purin-9-yl)methyl)picolinonitrile] | 1.58 µM
> 10 µM | COc1cccc(Cn2c(-c3ccc(OCCN4CCNCC4)cc3Cl)nc3c(OC4(C)CC4)ncnc32)n1 [Example K10, 8-(2-chloro-4-(2-(piperazin-1-yl)ethoxy)phenyl)-9-((6-methoxypyridin-2-yl)methyl)-6-(1-methylcyclopropoxy)-9H-purine] | 1.58 µM
> 10 µM | CC1(Oc2ncnc3c2nc(-c2ccc(OCCN4CCNCC4)cc2Cl)n3Cc2ncccc2C#N)CC1 [Example K11, 2-((8-(2-chloro-4-(2-(piperazin-1-yl)ethoxy)phenyl)-6-(1-methylcyclopropoxy)-9H-purin-9-yl)methyl)nicotinonitrile] | 2 µM
> 10 µM | Cc1scnc1Cn1c(-c2ccc(OCCN3CCNCC3)cc2Cl)nc2c(OC3(C)CC3)ncnc21 [Example K12, 4-((8-(2-chloro-4-(2-(piperazin-1-yl)ethoxy)phenyl)-6-(1-methylcyclopropoxy)-9H-purin-9-yl)methyl)-5-methylthiazole] | 1.58 µM
> 10 µM | Cc1ccnc(Cn2c(-c3ccc(OCCN4CCNCC4)cc3Cl)nc3c(OC4(C)CC4)ncnc32)c1 [Example L2, 8-(2-chloro-4-(2-(piperazin-1-yl)ethoxy)phenyl)-6-(1-methylcyclopropoxy)-9-((4-methylpyridin-2-yl)methyl)-9H-purine] | 0.398 µM
